Data taken from patent US8829194B2, “Crystalline forms of the sodium salt of (4-{4-[5-(6-trifluoromethyl-pyridin-3-ylamino)-pyridin-2-yl]-phenyl}-cyclohexyl)-acetic acid” (Novartis AG, priority 2010, dated 2014).

Experiments:
Assay type in all cases: physicochemical
[1] = Water loss as a function of temperature by TG/DTA (loss on drying, thermal transitions); conditions: for Loss On Drying (LOD) (%): total water loss by thermogravimetry, rt-295° C., 10°/min; for LOD (thermal transitions): DTA signals, temperature at which the water is lost
Description: (ii) Thermogravimetric/Differential Thermal Analysis (TG/DTA) […]
The data listed below show the total water loss (LOD by thermogravimetry (TG)) and thermal transitions (DTA signals) show the temperature at which the water is lost.

[2] = Physical stability of the crystalline forms (relative humidity, absorption-desorption isotherm FIG. 1, temperature, storage); conditions: absorption-desorption isotherm, FIG. 1
[3] = Humidity microbalance analysis (VTI), moisture sorption at 25° C.; conditions: for hygroscopicity / moisture uptake in words: variations in humidity
Description: Thus, Modification C retains a stable weight from 0% relative humidity to 80% relative humidity while Modification A loses water with decreasing humidity and gains moisture with increasing humidity. With Modification C, a re-hydration step and the possible variability in water content between batches may thus be eliminated.
Modification N is particularly suitable for industrial scale-up. It is a crystalline anhydrous form.
Modification O is particularly suitable for industrial scale-up. It is a crystalline anhydrous form.

With `O=C([O-])C[C@H]1CC[C@H](c2ccc(-c3ccc(Nc4ccc(C(F)(F)F)nc4)cn3)cc2)CC1.[Na+]` [Modification B, sodium salt of (4-{4-[5-(6-trifluoromethyl-pyridin-3-ylamino)-pyridin-2-yl]-phenyl}-cyclohexyl)-acetic acid] the “Loss On Drying (LOD) (%)” value ([1]; listed as B) was 6.9%.

For `O=C([O-])C[C@H]1CC[C@H](c2ccc(-c3ccc(Nc4ccc(C(F)(F)F)nc4)cn3)cc2)CC1.[Na+]` [Modification D, sodium salt of (4-{4-[5-(6-trifluoromethyl-pyridin-3-ylamino)-pyridin-2-yl]-phenyl}-cyclohexyl)-acetic acid], the “LOD (thermal transitions)” value ([1]; listed as D) was 84.5 °C and the “Loss On Drying (LOD) (%)” value ([1]; listed as D) was 12.4%.

With `O=C([O-])C[C@H]1CC[C@H](c2ccc(-c3ccc(Nc4ccc(C(F)(F)F)nc4)cn3)cc2)CC1.[Na+]` [Modification E, sodium salt of (4-{4-[5-(6-trifluoromethyl-pyridin-3-ylamino)-pyridin-2-yl]-phenyl}-cyclohexyl)-acetic acid] the “Loss On Drying (LOD) (%)” value ([1]; listed as E) was 9.5%.

For `O=C([O-])C[C@H]1CC[C@H](c2ccc(-c3ccc(Nc4ccc(C(F)(F)F)nc4)cn3)cc2)CC1.[Na+]` [Modification F, sodium salt of (4-{4-[5-(6-trifluoromethyl-pyridin-3-ylamino)-pyridin-2-yl]-phenyl}-cyclohexyl)-acetic acid], the “LOD (thermal transitions)” value ([1]; listed as F) was 90 °C and the “Loss On Drying (LOD) (%)” value ([1]; listed as F) was 3.5%.

For `O=C([O-])C[C@H]1CC[C@H](c2ccc(-c3ccc(Nc4ccc(C(F)(F)F)nc4)cn3)cc2)CC1.[Na+]` [Modification G, sodium salt of (4-{4-[5-(6-trifluoromethyl-pyridin-3-ylamino)-pyridin-2-yl]-phenyl}-cyclohexyl)-acetic acid], the “Loss On Drying (LOD) (%)” value ([1]; listed as G) was 11.7%.

For `O=C([O-])C[C@H]1CC[C@H](c2ccc(-c3ccc(Nc4ccc(C(F)(F)F)nc4)cn3)cc2)CC1.[Na+]` [Modification H, sodium salt of (4-{4-[5-(6-trifluoromethyl-pyridin-3-ylamino)-pyridin-2-yl]-phenyl}-cyclohexyl)-acetic acid], the “LOD (thermal transitions)” value ([1]; listed as H) was 68.3 °C and the “Loss On Drying (LOD) (%)” value ([1]; listed as H) was 3%.

For `O=C([O-])C[C@H]1CC[C@H](c2ccc(-c3ccc(Nc4ccc(C(F)(F)F)nc4)cn3)cc2)CC1.[Na+]` [Modification I, sodium salt of (4-{4-[5-(6-trifluoromethyl-pyridin-3-ylamino)-pyridin-2-yl]-phenyl}-cyclohexyl)-acetic acid], the “Loss On Drying (LOD) (%)” value ([1]; listed as I) was 9.5%.

With `O=C([O-])C[C@H]1CC[C@H](c2ccc(-c3ccc(Nc4ccc(C(F)(F)F)nc4)cn3)cc2)CC1.[Na+]` [Modification J, sodium salt of (4-{4-[5-(6-trifluoromethyl-pyridin-3-ylamino)-pyridin-2-yl]-phenyl}-cyclohexyl)-acetic acid] the “Loss On Drying (LOD) (%)” value ([1]; listed as J) was 3.1%.

In the case of `O=C([O-])C[C@H]1CC[C@H](c2ccc(-c3ccc(Nc4ccc(C(F)(F)F)nc4)cn3)cc2)CC1.[Na+]` [Modification L, sodium salt of (4-{4-[5-(6-trifluoromethyl-pyridin-3-ylamino)-pyridin-2-yl]-phenyl}-cyclohexyl)-acetic acid], the “LOD (thermal transitions)” value ([1]; listed as L) is reported as 65 °C and the “Loss On Drying (LOD) (%)” value ([1]; listed as L) is reported as 14.9%.

In the case of `O=C([O-])C[C@H]1CC[C@H](c2ccc(-c3ccc(Nc4ccc(C(F)(F)F)nc4)cn3)cc2)CC1.[Na+]` [Modification M, sodium salt of (4-{4-[5-(6-trifluoromethyl-pyridin-3-ylamino)-pyridin-2-yl]-phenyl}-cyclohexyl)-acetic acid], the “LOD (thermal transitions)” value ([1]; listed as M) is reported as “None”, the “Loss On Drying (LOD) (%)” value ([1]; listed as M) is reported as 0% and the “relative humidity range in which the form is stable” value [2] is reported as “below 10 % relative humidity”.

In the case of `O=C([O-])C[C@H]1CC[C@H](c2ccc(-c3ccc(Nc4ccc(C(F)(F)F)nc4)cn3)cc2)CC1.[Na+]` [Modification N, sodium salt of (4-{4-[5-(6-trifluoromethyl-pyridin-3-ylamino)-pyridin-2-yl]-phenyl}-cyclohexyl)-acetic acid], the “relative humidity at which moisture gain starts / becomes significant” value [3] is reported as 70 % relative humidity, the “Mass uptake (% water absorbed)” value ([3]; 0 % residual humidity) is reported as 0.0% and the “Mass uptake (% water absorbed)” value ([3]; 10 % residual humidity) is reported as 0.1%. For the same compound, the “Mass uptake (% water absorbed)” value ([3]; 50 % residual humidity) was 0.7%, the “Mass uptake (% water absorbed)” value ([3]; 60 % residual humidity) was 0.9% and the “Mass uptake (% water absorbed)” value ([3]; 70 % residual humidity) was 1.0%. For the same compound, the “Mass uptake (% water absorbed)” value ([3]; 79 % residual humidity) was 3.7%, the “Mass uptake (% water absorbed)” value ([3]; 90 % residual humidity) was 18.2% and the “Mass uptake (% water absorbed)” value ([3]; 95 % residual humidity) was 19.1%. The “hygroscopicity / moisture uptake in words” value [3] was “low hygroscopicity”, the “LOD (thermal transitions)” value [1] was “None” and the “Loss On Drying (LOD) (%)” value [1] was 0.3%.

In the case of `O=C([O-])C[C@H]1CC[C@H](c2ccc(-c3ccc(Nc4ccc(C(F)(F)F)nc4)cn3)cc2)CC1.[Na+]` [Modification O, sodium salt of (4-{4-[5-(6-trifluoromethyl-pyridin-3-ylamino)-pyridin-2-yl]-phenyl}-cyclohexyl)-acetic acid], the “relative humidity at which moisture gain starts / becomes significant” value [3] is reported as 80 % relative humidity, the “Mass uptake (% water absorbed)” value ([3]; 0 % residual humidity) is reported as 0.0% and the “Mass uptake (% water absorbed)” value ([3]; 10 % residual humidity) is reported as 0.0%. The “Mass uptake (% water absorbed)” value ([3]; 50 % residual humidity) was −0.5%, the “Mass uptake (% water absorbed)” value ([3]; 60 % residual humidity) was −0.5% and the “Mass uptake (% water absorbed)” value ([3]; 70 % residual humidity) was −0.5%. The “Mass uptake (% water absorbed)” value ([3]; 79 % residual humidity) was −0.4%, the “Mass uptake (% water absorbed)” value ([3]; 90 % residual humidity) was 4.3% and the “Mass uptake (% water absorbed)” value ([3]; 95 % residual humidity) was 13.3%. For the same compound, the “hygroscopicity / moisture uptake in words” value [3] was “low hygroscopicity”, the “LOD (thermal transitions)” value [1] was “None” and the “Loss On Drying (LOD) (%)” value [1] was 1.2%.

In the case of `O=C([O-])C[C@H]1CC[C@H](c2ccc(-c3ccc(Nc4ccc(C(F)(F)F)nc4)cn3)cc2)CC1.[Na+]` [Modification P, sodium salt of (4-{4-[5-(6-trifluoromethyl-pyridin-3-ylamino)-pyridin-2-yl]-phenyl}-cyclohexyl)-acetic acid], the “LOD (thermal transitions)” value ([1]; listed as P) is reported as 65 °C and the “Loss On Drying (LOD) (%)” value ([1]; listed as P) is reported as 10.9%.
